In patent US20090131470A1, “PYRAZOLE-SUBSTITUTED BENZIMIDAZOLE DERIVATIVES FOR USE IN THE TREATMENT OF CANCER AND AUTOIMMUNE DISORDERS” (priority 2005, published 2009):

What was measured:
Assay type in all cases: biochemical
[1] = target: T1, PKA (Homo sapiens, UniProt P17612); assay: PKA kinase assay (Kemptide substrate); conditions: 100 μM ATP
T1 construct: purchased Upstate
Protocol: (§1) The assay mixture containing the inhibitor and CDK-2 enzyme, complexed with cyclin A (0.4 U/ml) was mixed together in a microtiter plate in a final volume of 50 μl and incubated for 40 min at 30° C. The assay mixture contained 0.1 mM unlabeled ATP, 0.01 μCi/μl ^33P-γ-ATP, 0.03 mM peptide, 0.1 mg/ml BSA, 7.5 mM magnesium acetate, 50 mM HEPES-NaOH, pH 7.5. The reaction was stopped by adding 50 μl of 50 mM phosphoric acid. 90 μl of the mixture were transferred to a pre-wetted 96-well Multiscreen MAPHNOB filtration plate (Millipore) and filtered on a vacuum manifold. The filter plate was washed with 3 successive additions of 200 μl 50 mM phosphoric acid and then with 100 μl methanol. The filtration plate was dried for 10 min at 65° C., scintillant added and phosphorylated peptide quantified in a scintillation counter (Trilux, PerkinElmer)
The PKA assay was incubated at 30° C. for 30 minutes.

[2] = target: CDK-2 enzyme, complexed with cyclin A (Homo sapiens, UniProt P24941); assay: CDK2 kinase assay (33P peptide phosphorylation); conditions: 0.1 mM ATP, cyclin A complex
Protocol: as §1

[3] = target: T2, PDK1 (Homo sapiens, UniProt O15530); assay: PDK1 kinase assay (33P peptide phosphorylation); conditions: 0.01 mM ATP, 60 min at 30° C.; read-out: PDK-1 IC50
T2 sequence (O15530 1-556): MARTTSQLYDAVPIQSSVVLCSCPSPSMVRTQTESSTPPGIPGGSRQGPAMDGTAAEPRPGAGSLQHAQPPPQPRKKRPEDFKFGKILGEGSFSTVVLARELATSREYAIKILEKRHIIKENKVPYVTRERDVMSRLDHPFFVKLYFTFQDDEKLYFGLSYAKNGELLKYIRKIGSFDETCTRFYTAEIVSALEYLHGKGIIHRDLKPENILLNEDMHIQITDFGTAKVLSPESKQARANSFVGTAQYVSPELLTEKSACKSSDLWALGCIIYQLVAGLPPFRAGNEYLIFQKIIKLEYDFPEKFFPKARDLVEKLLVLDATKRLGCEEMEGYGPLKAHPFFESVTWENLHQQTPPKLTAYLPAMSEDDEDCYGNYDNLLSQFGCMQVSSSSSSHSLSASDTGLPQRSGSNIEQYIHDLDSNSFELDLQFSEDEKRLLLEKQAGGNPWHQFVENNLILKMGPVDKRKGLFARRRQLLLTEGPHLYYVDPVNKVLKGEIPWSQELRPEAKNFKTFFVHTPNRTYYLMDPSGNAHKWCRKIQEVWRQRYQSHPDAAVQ
Protocol: as §1, with “and PDK1 enzyme” for “and CDK-2 enzyme, complexed with cyclin A (0.4 U/ml)”, “for 60” for “for 40”, “contained 0.01” for “contained 0.1”, “^33P-γ-ATP, 0.075” for “^33P-γ-ATP, 0.03”, “acetate, 0.05M Tris.HCl,” for “acetate, 50 mM HEPES-NaOH,”, “pH 7.5, 0.5% 2-mercaptoethanol.” for “pH 7.5.”

[4] = target: T3, GST-Chk1 enzyme (Homo sapiens, UniProt O14757); assay: Chk1 kinase assay (33P Chktide phosphorylation); conditions: 0.01 mM ATP, 40 minutes at 30° C.; read-out: CHK-1 IC50
T3 sequence (O14757 1-476): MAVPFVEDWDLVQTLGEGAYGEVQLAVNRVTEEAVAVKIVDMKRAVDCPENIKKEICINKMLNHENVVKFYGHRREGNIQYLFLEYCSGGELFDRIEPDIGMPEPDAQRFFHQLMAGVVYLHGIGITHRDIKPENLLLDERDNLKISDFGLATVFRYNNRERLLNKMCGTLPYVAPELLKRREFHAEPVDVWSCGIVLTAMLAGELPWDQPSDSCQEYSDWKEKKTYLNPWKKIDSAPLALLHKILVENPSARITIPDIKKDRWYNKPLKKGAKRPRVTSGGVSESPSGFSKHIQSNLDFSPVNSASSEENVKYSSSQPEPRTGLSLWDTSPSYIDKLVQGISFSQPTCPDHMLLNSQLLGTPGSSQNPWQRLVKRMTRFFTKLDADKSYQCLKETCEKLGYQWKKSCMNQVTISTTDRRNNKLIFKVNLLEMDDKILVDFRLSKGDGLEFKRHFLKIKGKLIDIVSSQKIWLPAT
Protocol: as §1, with “and Chk1 enzyme” for “and CDK-2 enzyme, complexed with cyclin A (0.4 U/ml)”, “40 minutes” for “40 min”, “C. […]” for “C. The assay mixture contained 0.1 mM unlabeled ATP, 0.01 μCi/μl ^33P-γ-ATP, 0.03 mM peptide, 0.1 mg/ml BSA, 7.5 mM magnesium acetate, 50 mM HEPES-NaOH, pH 7.5.”, “mixture was” for “mixture were”, “96-well multi-screen” for “96-well Multiscreen”

[5] = target: T4, Akt1 (Homo sapiens, UniProt P31749); assay: Akt1 kinase assay (Histone H1 substrate); conditions: 200 μM ATP, read-out: AKT-1 IC50
T4 construct: purchased Upstate
T4 sequence (P31749 whole entry, species assumed): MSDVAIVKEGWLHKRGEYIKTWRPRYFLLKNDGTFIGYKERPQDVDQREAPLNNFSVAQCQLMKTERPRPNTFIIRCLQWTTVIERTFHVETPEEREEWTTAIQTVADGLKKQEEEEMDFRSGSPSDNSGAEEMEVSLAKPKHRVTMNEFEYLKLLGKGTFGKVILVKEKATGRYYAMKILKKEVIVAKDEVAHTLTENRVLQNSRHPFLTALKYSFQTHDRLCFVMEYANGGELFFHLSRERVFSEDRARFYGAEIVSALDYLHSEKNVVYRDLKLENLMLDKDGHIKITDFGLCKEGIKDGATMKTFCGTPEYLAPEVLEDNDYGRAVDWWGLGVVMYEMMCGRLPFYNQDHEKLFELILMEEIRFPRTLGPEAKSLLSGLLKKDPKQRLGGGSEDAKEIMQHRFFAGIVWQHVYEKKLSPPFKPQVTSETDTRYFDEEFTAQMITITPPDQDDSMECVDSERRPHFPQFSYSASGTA
Protocol: Assays for the cyclin dependent kinase activity were carried out by monitoring the phosphorylation of a synthetic peptide, HATTPKKKRK. The assay mixture containing the inhibitor and CDK-2 enzyme, complexed with cyclin A (0.4 U/ml) was mixed together in a microtiter plate in a final volume of 50 μl and incubated for 40 min at 30° C. The assay mixture contained 0.1 mM unlabeled ATP, 0.01 μCi/μl ^33P-γ-ATP, 0.03 mM peptide, 0.1 mg/ml BSA, 7.5 mM magnesium acetate, 50 mM HEPES-NaOH, pH 7.5. The reaction was stopped by adding 50 μl of 50 mM phosphoric acid. 90 μl of the mixture were transferred to a pre-wetted 96-well Multiscreen MAPHNOB filtration plate (Millipore) and filtered on a vacuum manifold. The filter plate was washed with 3 successive additions of 200 μl 50 mM phosphoric acid and then with 100 μl methanol. The filtration plate was dried for 10 min at 65° C., scintillant added and phosphorylated peptide quantified in a scintillation counter (Trilux, PerkinElmer)
Protocol for the Akt assay is the same for CDK2 except that, 3 nM Akt1 (Upstate) was used with Histone H1 as substrate with a final ATP concentration of 200 μM. The reaction was incubated at 30° C. for 40 minutes.

Compound	IC50 [1]	IC50 [2]	IC50 [3]	IC50 [4]	IC50 [5]
O=C(NC1CCNCC1)c1c[nH]nc1-c1nc2ccccc2[nH]1 [Example 20]	32.1 µM	6.36 µM	0.323 µM	0.252 µM	> 50 µM
Cc1[nH]nc(-c2nc3ccc(NC(=O)C(C)C)cc3[nH]2)c1C(=O)NC1CCN(C)CC1 [Example 21]	13.1 µM	21.3 µM	0.074 µM	0.006 µM	> 50 µM
Cc1[nH]nc(-c2nc3cc4cn[nH]c4cc3[nH]2)c1C(=O)NCC1CCNCC1 [Example 22]	6.4 µM	31 µM	0.11 µM	0.094 µM	36.1 µM
Cc1[nH]nc(-c2nc3cc(-c4cccc5c4CCO5)ccc3[nH]2)c1C(=O)NC1CCNCC1 [Example 23]	5.36 µM	21.1 µM	0.125 µM	0.015 µM	25.6 µM
Cc1[nH]nc(-c2nc3cc(C(=O)NC(C)C)ccc3[nH]2)c1C(=O)NC1CCNCC1 [Example 24]	10.7 µM	6.42 µM	0.046 µM	0.036 µM	34.5 µM
Cc1[nH]nc(-c2nc3cc4ccccc4cc3[nH]2)c1C(=O)NCC1CCCN1 (stereo not drawn) [Example 26]	34.7 µM	34.2 µM	0.521 µM	0.309 µM	> 50 µM
Cc1[nH]nc(-c2nc3cc4ccccc4cc3[nH]2)c1C(=O)NCC1CCNC1 (stereo not drawn) [Example 27]	8.31 µM	6.24 µM	0.143 µM	0.004 µM	> 50 µM
Cc1[nH]nc(-c2nc3cc4ccccc4cc3[nH]2)c1C(=O)NCC1CCCNC1 (stereo not drawn) [Example 28]	8.99 µM	8.5 µM	0.125 µM	0.008 µM	> 50 µM
Cc1cc2nc(-c3n[nH]c(C)c3C(=O)NC3CCN(C)CC3)[nH]c2cc1C [Example 29]	5.98 µM	8.24 µM	0.18 µM	0.016 µM	> 50 µM
Cc1[nH]nc(-c2nc3ccccc3[nH]2)c1C(=O)NC1CCN(C)CC1 [Example 30]	20.2 µM	2.21 µM	0.139 µM	0.0635 µM	11.8 µM
COCCNC(=O)c1ccc2nc(-c3n[nH]c(C)c3C(=O)NC3CCNCC3)[nH]c2c1 [Example 31]	8.04 µM	11.4 µM	0.073 µM	0.002 µM	31.4 µM
Cc1[nH]nc(-c2nc3ccc(C(=O)NCC(C)c4ccccc4)cc3[nH]2)c1C(=O)NC1CCNCC1 (stereo not drawn) [Example 32]	6.5 µM	15.6 µM	0.036 µM	0.003 µM	18.1 µM
Cc1[nH]nc(-c2nc3ccc(NC(=O)CC(C)C)cc3[nH]2)c1C(=O)NC1CCN(C)CC1 [Example 33]	13.1 µM	21.3 µM	0.095 µM	0.003 µM	47.5 µM
Cc1[nH]nc(-c2nc3cc(F)c(NC(=O)C4CC4)cc3[nH]2)c1C(=O)NC1CCN(C)CC1 [Example 34]	28.4 µM	20.6 µM	0.216 µM	0.013 µM	44.1 µM
Cc1[nH]nc(-c2nc3ccc(C(=O)NCC(O)c4ccccc4)cc3[nH]2)c1C(=O)NC1CCNCC1 (stereo not drawn) [Example 35]	5.31 µM	13.8 µM	0.057 µM	0.037 µM	10.6 µM
Cc1[nH]nc(-c2nc3ccc(C(C)(C)C)cc3[nH]2)c1C(=O)NC1CCNCC1 [Example 37]	4.95 µM	1.85 µM	0.049 µM	0.006 µM	> 10 µM
Cc1[nH]nc(-c2nc3ccc(C(F)(F)F)cc3[nH]2)c1C(=O)NC1CCNCC1 [Example 38]	16.9 µM	19.3 µM	0.032 µM	0.058 µM	> 10 µM
Cc1[nH]nc(-c2nc3ccc(C(F)(F)F)cc3[nH]2)c1C(=O)NCC1CCCNC1 (stereo not drawn) [Example 39]	> 50 µM	> 50 µM	0.086 µM	0.049 µM	> 10 µM
Cc1[nH]nc(-c2nc3ccc(C4CC4)cc3[nH]2)c1C(=O)NC1CCNCC1 [Example 40]	2.86 µM	23.7 µM	0.02 µM	0.022 µM	> 10 µM
Cc1[nH]nc(-c2nc3ccc(C(C)(C)C)cc3[nH]2)c1C(=O)N[C@@H]1CN2CCC1CC2 [Example 41]	2.12 µM	> 50 µM	0.052 µM	0.025 µM	> 10 µM
Cc1[nH]nc(-c2nc3ccc(C(C)C)cc3[nH]2)c1C(=O)NC1CN2CCC1CC2 (stereo not drawn) [Example 42]	3.82 µM	9.67 µM	0.045 µM	0.05 µM	> 10 µM
Cc1[nH]nc(-c2nc3ccc(C(C)C)cc3[nH]2)c1C(=O)N[C@@H]1CN2CCC1CC2 [Example 43]	2.02 µM	14.7 µM	0.022 µM	0.026 µM	> 10 µM
Cc1[nH]nc(-c2nc3cc(Cl)c(C(C)C)cc3[nH]2)c1C(=O)NC1CN2CCC1CC2 (stereo not drawn) [Example 44]	12 µM	> 50 µM	0.14 µM	0.091 µM	> 10 µM
Cc1[nH]nc(-c2nc3cc(Cl)c(C(C)C)cc3[nH]2)c1C(=O)NC1CCNCC1 [Example 45]	5.13 µM	11.9 µM	0.013 µM	0.013 µM	> 10 µM
